# Experimental data: patent publication US12569453B2, “Use of tapinarof for the treatment of atopic dermatitis” (Dermavant Sciences GmbH, priority 2018, dated 2026)
# Marks after values point to notes of the source that are not given here.
# System: adult subjects with psoriasis
# Assay: Phase II/2b clinical study in plaque psoriasis: efficacy and patient-reported outcomes
# Assay type: in vivo, human
# Conditions: for PGA response rate (primary endpoint): interim analysis; for subjects with ≥4 improvement in pruritus NRS score from baseline: baseline NRS score ≥4; for PGA response rate (PGA 0 or 1 and ≥2-grade improvement): mITT OC; for PGA treatment success: Week 16 (4 weeks after end of treatment)
# From the text: This was a multicenter (United States, Canada, and Japan), randomized, double-blind (Sponsor-unblind), vehicle-controlled, 6-arm, parallel-group, dose-finding study in adult subjects with psoriasis. Certain study personnel at each site were unblinded to dose-frequency.
# The study consisted of 3 periods: up to 4 weeks Screening, 12 weeks double-blind treatment, and 4 weeks post-treatment follow-up. Study visits occurred at Screening; Baseline; weeks 1, 2, 4, 8, and 12 during the treatment period; and 2 and 4 weeks after the last application of study treatment (i.e., at weeks 14 and 16). Additional visits could occur, as needed, for early withdrawals or to follow-up on any skin reactions or ongoing AEs. A subject's total duration of study participation was approximately 16 to 20 weeks.
# Two concentrations of Tapinarof cream (0.5% and 1%) and a vehicle control were evaluated following application to all psoriasis lesions (except on the scalp) once (QD) or twice daily (BID) for 12 weeks. There were no planned dose adjustments during the study.
# Efficacy was assessed by using a 5-point static Physician Global Assessment (PGA) (0-4 scale), the Psoriasis Area and Severity Index (PASI), % BSA involvement, target lesion assessments (erythema, scaling, and plaque thickness), and subject-reported itch/pruritus severity using a numeric rating scale (NRS) (from the Psoriasis Symptom Diary [PSD]). Additional subject-reported outcomes included the daily PSD (which also contained severity and bother items for 3 additional symptoms). Investigator global impression of change item (assessing change in severity of psoriasis symptoms) and 2 subject global impressions of change items (assessing change in severity of psoriasis symptoms and change in severity of itch/pruritus) were also assessed.
# Physician Global Assessment: The PGA is a clinical tool for assessing the current state/severity of a subject's psoriasis. It is a static 5-point morphological assessment of overall disease severity, as determined by the investigator, using the clinical characteristics of erythema, plaque thickness, and scaling as guidelines. At each specified time point, the PGA is made without reference to previous scores. Variations of the PGA are frequently used in clinical studies because it is a simple assessment that is more similar to the assessments actually used in clinical practice. Scoring system ranges from 0 (=Clear) to 4 (=Severe).
# Psoriasis Area and Severity Index: The PASI scoring system is a widely-used standard clinical tool for assessing the severity of psoriasis that takes into account the overall severity of erythema (redness), thickness (induration), and scale, as well as the extent of BSA affected with psoriasis. The 3 clinical signs are each graded on a 5 point scale (0 to 4) and the % BSA affected is scored on a 7-point scale (0 to 6) for each of the 4 specified body regions (head, upper extremities, trunk, and lower extremities). The individual scores are multiplied by a weighted factor for each body region; the sum of these scores gives the overall PASI score. Higher scores indicate more severe disease. PASI is a static assessment made without reference to previous scores.
# Body Surface Area: The extent of BSA affected by psoriasis is a general indicator of disease severity and was measured throughout the study. The extent of BSA to which study treatment was applied was also recorded. For the purpose of approximate clinical estimation, the total palmar surface of the palm plus 5 digits was assumed to be approximately equivalent to 1% BSA.
# Target Lesion Grading: A single target lesion was selected at Baseline to assess efficacy in treating a discrete area rather than an overall average of all areas. For that lesion, the severity of erythema, scaling, and plaque thickness was assessed by the investigator on a 5-point scale ranging from “0=none” to “4=severe”. […]
smiles,measurement,setting,value
"CC(C)c1c(O)cc(/C=C/c2ccccc2)cc1O [Tapinarof, 3,5-Dihydroxy-4-isopropyl-trans-stilbene]","difference in PGA response rate, active minus vehicle","0.5% BID-vehicle BID, Week 12",35.6%
same,PGA response at Week 12,"0.5% BID, 1 to <10% BSA affected at baseline",33%
same,"Target lesion Erythema, percent change from Baseline (Mean)","0.5% BID, Early WD",−25.00%
same,"Target lesion Plaque thickness, percent change from Baseline (Mean)","0.5% BID, Early WD",−33.33%
same,"Target lesion Scaling, percent change from Baseline (Mean)","0.5% BID, Early WD",−41.67%
same,PGA response at Week 12,"0.5% BID, Fitzpatrick skin type I/II",50%
same,PGA response at Week 12,"0.5% BID, Fitzpatrick skin type III/IV",60%
same,PGA response at Week 12,"0.5% BID, Fitzpatrick skin type V/VI",25%
same,"Target lesion Erythema, percent change from Baseline (Mean)","0.5% BID, Follow-up Week 14",−68.25%
same,"Target lesion Plaque thickness, percent change from Baseline (Mean)","0.5% BID, Follow-up Week 14",−67.86%
same,"Target lesion Scaling, percent change from Baseline (Mean)","0.5% BID, Follow-up Week 14",−68.65%
same,"Target lesion Erythema, percent change from Baseline (Mean)","0.5% BID, Follow-up/Week 16",−59.47%
same,"Target lesion Plaque thickness, percent change from Baseline (Mean)","0.5% BID, Follow-up/Week 16",−54.92%
same,"Target lesion Scaling, percent change from Baseline (Mean)","0.5% BID, Follow-up/Week 16",−57.95%
same,"Target lesion Erythema, percent change from Baseline (Mean)","0.5% BID, Week 1",−9.95%
same,"Target lesion Plaque thickness, percent change from Baseline (Mean)","0.5% BID, Week 1",−14.52%
same,"Target lesion Scaling, percent change from Baseline (Mean)","0.5% BID, Week 1",−12.37%
same,"Target lesion Erythema, percent change from Baseline (Mean)","0.5% BID, Week 2",−23.61%
same,"Target lesion Plaque thickness, percent change from Baseline (Mean)","0.5% BID, Week 2",−33.89%
same,"Target lesion Scaling, percent change from Baseline (Mean)","0.5% BID, Week 2",−35.00%
same,"Target lesion Erythema, percent change from Baseline (Mean)","0.5% BID, Week 4",−45.54%
same,"Target lesion Plaque thickness, percent change from Baseline (Mean)","0.5% BID, Week 4",−44.64%
same,"Target lesion Scaling, percent change from Baseline (Mean)","0.5% BID, Week 4",−50.89%
same,"Target lesion Erythema, percent change from Baseline (Mean)","0.5% BID, Week 8",−62.33%
same,"Target lesion Plaque thickness, percent change from Baseline (Mean)","0.5% BID, Week 8",−62.67%
same,"Target lesion Scaling, percent change from Baseline (Mean)","0.5% BID, Week 8",−60.00%
same,PGA response rate (primary endpoint),"0.5% BID, Week 8",36%
same,Mean change in nine items of the PSD from baseline,"0.5% BID, Week 12",−4.2^‡
same,Mean change in total target lesion grading scores from baseline,"0.5% BID, Week 12",−6.2*
same,"Target lesion Erythema, percent change from Baseline (Mean)","0.5% BID, Week 12",−76.52%
same,"Target lesion Plaque thickness, percent change from Baseline (Mean)","0.5% BID, Week 12",−71.59%
same,"Target lesion Scaling, percent change from Baseline (Mean)","0.5% BID, Week 12",−78.03%
same,subjects with ≥4 improvement in pruritus NRS score from baseline,"0.5% BID, Week 12",56%
same,PGA response rate (PGA 0 or 1 and ≥2-grade improvement),"0.5% BID, Week 12",46%
same,PASI50 response rate,"0.5% BID, Week 16",62%
same,PASI75 response rate,"0.5% BID, Week 16",46%
same,PASI90 response rate,"0.5% BID, Week 16",27%
same,PGA treatment success,0.5% BID,35%
same,PGA response at Week 12,"0.5% BID, psoriasis duration 5 years to <10 years",20%
same,PGA response at Week 12,"0.5% BID, psoriasis duration 6 months to <5 years",50%
same,PGA response at Week 12,"0.5% BID, psoriasis duration ≥10 years",53%
same,PGA response at Week 12,"0.5% BID, ≥10% BSA affected at baseline",75%
same,"difference in PGA response rate, active minus vehicle","0.5% QD-vehicle QD, Week 12",30.7%
same,PGA response at Week 12,"0.5% QD, 1 to <10% BSA affected at baseline",35%
same,"Target lesion Erythema, percent change from Baseline (Mean)","0.5% QD, Early WD",8.33%
same,"Target lesion Plaque thickness, percent change from Baseline (Mean)","0.5% QD, Early WD",0.00%
same,"Target lesion Scaling, percent change from Baseline (Mean)","0.5% QD, Early WD",−16.67%
same,PGA response at Week 12,"0.5% QD, Fitzpatrick skin type I/II",25%
same,PGA response at Week 12,"0.5% QD, Fitzpatrick skin type III/IV",44%
same,PGA response at Week 12,"0.5% QD, Fitzpatrick skin type V/VI",25%
same,"Target lesion Erythema, percent change from Baseline (Mean)","0.5% QD, Follow-up Week 14",−63.77%
same,"Target lesion Plaque thickness, percent change from Baseline (Mean)","0.5% QD, Follow-up Week 14",−67.39%
same,"Target lesion Scaling, percent change from Baseline (Mean)","0.5% QD, Follow-up Week 14",−67.75%
same,"Target lesion Erythema, percent change from Baseline (Mean)","0.5% QD, Follow-up/Week 16",−73.96%
same,"Target lesion Plaque thickness, percent change from Baseline (Mean)","0.5% QD, Follow-up/Week 16",−71.53%
same,"Target lesion Scaling, percent change from Baseline (Mean)","0.5% QD, Follow-up/Week 16",−69.79%
same,"Target lesion Erythema, percent change from Baseline (Mean)","0.5% QD, Week 1",−14.25%
same,"Target lesion Plaque thickness, percent change from Baseline (Mean)","0.5% QD, Week 1",−10.22%
same,"Target lesion Scaling, percent change from Baseline (Mean)","0.5% QD, Week 1",−20.97%
same,"Target lesion Erythema, percent change from Baseline (Mean)","0.5% QD, Week 2",−28.13%
same,"Target lesion Plaque thickness, percent change from Baseline (Mean)","0.5% QD, Week 2",−26.04%
same,"Target lesion Scaling, percent change from Baseline (Mean)","0.5% QD, Week 2",−34.38%
same,"Target lesion Erythema, percent change from Baseline (Mean)","0.5% QD, Week 4",−35.48%
same,"Target lesion Plaque thickness, percent change from Baseline (Mean)","0.5% QD, Week 4",−42.47%
same,"Target lesion Scaling, percent change from Baseline (Mean)","0.5% QD, Week 4",−51.34%
same,"Target lesion Erythema, percent change from Baseline (Mean)","0.5% QD, Week 8",−50.81%
same,"Target lesion Plaque thickness, percent change from Baseline (Mean)","0.5% QD, Week 8",−60.75%
same,"Target lesion Scaling, percent change from Baseline (Mean)","0.5% QD, Week 8",−68.01%
same,PGA response rate (primary endpoint),"0.5% QD, Week 8",46%
same,Mean change in nine items of the PSD from baseline,"0.5% QD, Week 12",−4.1^†
same,Mean change in total target lesion grading scores from baseline,"0.5% QD, Week 12",−5.8*
same,PASI90 response rate,"0.5% QD, Week 12",18%
same,"Target lesion Erythema, percent change from Baseline (Mean)","0.5% QD, Week 12",−65.06%
same,"Target lesion Plaque thickness, percent change from Baseline (Mean)","0.5% QD, Week 12",−67.31%
same,"Target lesion Scaling, percent change from Baseline (Mean)","0.5% QD, Week 12",−72.76%
same,subjects with ≥4 improvement in pruritus NRS score from baseline,"0.5% QD, Week 12",57%
same,PGA response rate (PGA 0 or 1 and ≥2-grade improvement),"0.5% QD, Week 12",36%
same,PASI50 response rate,"0.5% QD, Week 16",71%
same,PASI75 response rate,"0.5% QD, Week 16",54%
same,PASI90 response rate,"0.5% QD, Week 16",18%
same,PGA treatment success,0.5% QD,36%
same,PGA response at Week 12,"0.5% QD, psoriasis duration 5 years to <10 years",50%
same,PGA response at Week 12,"0.5% QD, psoriasis duration 6 months to <5 years",29%
same,PGA response at Week 12,"0.5% QD, psoriasis duration ≥10 years",33%
same,PGA response at Week 12,"0.5% QD, ≥10% BSA affected at baseline",38%
same,subjects rating overall psoriasis symptoms very improved or moderately improved,"0.5% groups, Week 12",77-80%
same,subjects rating pruritus symptoms very improved or moderately improved,"0.5% groups, Week 12",73-77%
same,PASI75 responders who maintained response from Week 12 to Week 16,1% BID,80%
same,PGA responders who maintained response from Week 12 to Week 16,1% BID,67%
same,"difference in PGA response rate, active minus vehicle","1% BID-vehicle BID, Week 12",54.7%
same,PGA response at Week 12,"1% BID, 1 to <10% BSA affected at baseline",67%
